In patent publication US5061794A, “Cephalosporin derivatives, and antibacterial agents” (priority 1986, dated 1991):
≈ marks a conversion by molar mass, not a printed value. Read-outs that look alike come from different tables or passages of the source.

What was measured:
Ps. cepacia 23 = assay: in vitro antibacterial activity, agar plate dilution method (MIC); assay type: cell-based, Pseudomonas cepacia; conditions: Burkholderia cepacia, 16 h; Ps. cepacia 23; 10^6 CFU/ml; read-out: Minimum Inhibitory Concentration (MIC)
Protocol: (§1) The in vitro antibacterial activities of the compounds of the present invention against various microorganisms, were measured by the following agar plate dilution method. One platinum loopfull of each test microorganism incubated overnight in Mueller Hinton broth, was inoculated to Mueller Hinton agar (inoculum size: 10^6 CFU/ml). Such culture media containing various antibiotics in various concentrations were prepared. After incubation at 37° C. for 16 hours, the minimum inhibitory concentrations (MIC: μg/ml) were measured.

Ps. aeruginosa IF03445 = assay: as above; assay type: cell-based, Pseudomonas aeruginosa; conditions: Pseudomonas aeruginosa, 10^6 CFU/ml
Protocol: as §1

Ps. aeruginosa AKR17 = assay: as above; assay type: cell-based, Pseudomonas aeruginosa; conditions: Pseudomonas aeruginosa, 10^6 CFU/ml
Protocol: as §1

Ps. aeruginosa AK 109 = assay: as above; assay type: cell-based, Pseudomonas aeruginosa; conditions: Pseudomonas aeruginosa, AK109, 16 h
Protocol: as §1

S. marcescens No. 16-2 = assay: as above; assay type: cell-based; conditions: Serratia marcescens, NO.162, 16 h
Protocol: as §1

E. cloacae Nek 39 = assay: as above; assay type: cell-based; conditions: Enterobacter cloacae, NEK39, 16 h, read-out: Minimum Inhibitory Concentration (MIC), *E. cloacae Nek 39, lactamase-producing strain; 10^6 CFU/ml
Protocol: as §1

P. vulgaris HX-19 = assay: as above; assay type: cell-based; conditions: Proteus vulgaris, HX19, 16 h, read-out: Minimum Inhibitory Concentration (MIC)
Protocol: as §1

P. vulgaris No. 33 = assay: as above; assay type: cell-based; conditions: Proteus vulgaris, NO.33, 16 h, read-out: Minimum Inhibitory Concentration (MIC), *P. vulgaris No. 33, lactamase-producing strain; 10^6 CFU/ml
Protocol: as §1

S. marcescens IAM 1184 = assay: as above; assay type: cell-based; conditions: Serratia marcescens, IAM1184, 16 h, S. marcescens IAM 1184; 10^6 CFU/ml; read-out: Minimum Inhibitory Concentration (MIC)
Protocol: as §1

E. cloacae 963 = assay: as above; assay type: cell-based; conditions: 10^6 CFU/ml
Protocol: as §1

K. pneumoniae PCI-602 = assay: as above; assay type: cell-based; conditions: Klebsiella pneumoniae, PCI602, 16 h, 10^6 CFU/ml
Protocol: as §1

S. aureus 209P NIHJ-JC1 = assay: as above; assay type: cell-based; conditions: Staphylococcus aureus, 16 h
Protocol: as §1

E. coli GN5482 = assay: as above; assay type: cell-based; conditions: Escherichia coli, GN5482, 16 h
Protocol: as §1

K. oxytoca GN10650 = assay: as above; assay type: cell-based; conditions: Klebsiella oxytoca, 10^6 CFU/ml
Protocol: as §1

K. pneumoniae No. 42 = assay: as above; assay type: cell-based; conditions: Klebsiella pneumoniae, NO.42, 16 h, read-out: Minimum Inhibitory Concentration (MIC), *K. pneumoniae No. 42, lactamase-producing strain; 10^6 CFU/ml
Protocol: as §1

E. coli NIHJ JC2 = assay: as above; assay type: cell-based; conditions: Escherichia coli, NIHJJC2, 16 h, read-out: Minimum Inhibitory Concentration (MIC), E. coli NIHJ JC2, 10^6 CFU/ml, 37° C.
Protocol: as §1

E. coli CSH2 (RK1) = assay: microbe, parasite or virus in culture; assay type: cell-based; conditions: Escherichia coli, 16 h, read-out: Minimum Inhibitory Concentration (MIC), *E. coli CSH2 (RK1), lactamase-producing strain; 10^6 CFU/ml
Protocol: as §1

E. coli CSH(RE45) = assay: microbe, parasite or virus in culture; assay type: cell-based; conditions: Escherichia coli, 16 h, read-out: Minimum Inhibitory Concentration (MIC), *E. coli CSH(RE45), lactamase-producing strain; 10^6 CFU/ml
Protocol: as §1

A. calcoaceticus No. 4 = assay: in vitro antibacterial activity, agar plate dilution method (MIC); assay type: cell-based, Acinetobacter calcoaceticus; conditions: Acinetobacter calcoaceticus, NO.4, 16 h, 10^6 CFU/ml
Protocol: as §1

M. morganii GN5407 = assay: as above; assay type: cell-based; conditions: Morganella morganii, GN5407, 16 h, read-out: Minimum Inhibitory Concentration (MIC), *M. morganii GN5407, lactamase-producing strain; 10^6 CFU/ml
Protocol: as §1

[1] = 16 h, Ps. aeruginosa IF03445, read-out: Minimum Inhibitory Concentration (MIC)
[2] = 16 h, Ps. aeruginosa AKR17, read-out: Minimum Inhibitory Concentration (MIC)
[3] = read-out: Minimum Inhibitory Concentration (MIC)
[4] = Enterobacter cloacae, 16 h, E. cloacae 963, read-out: Minimum Inhibitory Concentration (MIC)
[5] = read-out: Minimum Inhibitory Concentration (MIC), K. pneumoniae PCI-602
[6] = GN10650, 16 h, read-out: Minimum Inhibitory Concentration (MIC), *K. oxytoca GN10650, lactamase-producing strain
[7] = read-out: Minimum Inhibitory Concentration (MIC), A. calcoaceticus No. 4
[8] = read-out: Minimum Inhibitory Concentration (MIC), *S. marcescens No. 16-2, lactamase-producing strain, 10^6 CFU/ml
[9] = Enterobacter cloacae, 963, 16 h, read-out: Minimum Inhibitory Concentration (MIC), E. cloacae 963
[10] = S. aureus 209P NIHJ-JC1, 10^6 CFU/ml, 37° C., 16 hours, read-out: Minimum Inhibitory Concentration (MIC)
[11] = read-out: Minimum Inhibitory Concentration (MIC), *E. coli GN5482, lactamase-producing strain, 10^6 CFU/ml
[12] = 16 h, *K. oxytoca GN10650, lactamase-producing strain, read-out: Minimum Inhibitory Concentration (MIC)
[13] = IF03445, 16 h, read-out: Minimum Inhibitory Concentration (MIC), Ps. aeruginosa IF03445
[14] = read-out: Minimum Inhibitory Concentration (MIC), Ps. aeruginosa AK 109, 10^6 CFU/ml
[15] = A. calcoaceticus No. 4, read-out: Minimum Inhibitory Concentration (MIC)

Structure (SMILES) | MIC (Ps. cepacia 23) [µg/mL] | MIC (Ps. aeruginosa AKR17; [2]) [µg/mL] | MIC (E. cloacae Nek 39) [µg/mL] | MIC (P. vulgaris No. 33) [µg/mL] | MIC (S. marcescens IAM 1184) [µg/mL] | MIC (E. cloacae 963; [4]) [µg/mL] | MIC (K. pneumoniae PCI-602; [5]) [µg/mL] | MIC (S. aureus 209P NIHJ-JC1; [3]) [µg/mL] | MIC (E. coli GN5482; [3]) [µg/mL] | MIC (K. oxytoca GN10650; [6]) [µg/mL] | MIC (K. pneumoniae No. 42) [µg/mL] | MIC (E. coli NIHJ JC2) [µg/mL] | MIC (E. coli CSH2 (RK1)) [µg/mL] | MIC (E. coli CSH(RE45)) [µg/mL] | MIC (A. calcoaceticus No. 4; [7]) [µg/mL] | MIC (S. marcescens No. 16-2; [8]) [µg/mL] | MIC (P. vulgaris HX-19; P. vulgaris HX-19, 10^6 CFU/ml) [µg/mL] | MIC (E. coli GN5482; [11]) [µg/mL] | MIC (K. oxytoca GN10650; [12]) [µg/mL] | MIC (Ps. aeruginosa IF03445; [13]) [µg/mL] | other results
CON=C(C(=O)NC1C(=O)N2C(C(=O)O)=C(CSc3nc(-c4ccc(O)c(O)c4)c(CC(=O)O)s3)CSC12)c1csc(N)n1 (stereo not drawn) [compound 58, disodium 7β-[2-(2-aminothiazol-4-yl)-2-methoxyiminoacetamido]-3-[4-(3,4-dihydroxyphenyl)-5-carboxylatemethylthiazol-2-yl]thiomethyl-3-cephem-4-carboxylate] | 0.025 | > 100 | 1.56 | 0.025 | 0.1 | 0.1 | < 0.006 | 12.5 | 3.12 | 12.5 | 0.1 | 0.39 | 0.0125 | 0.39 | 0.39 | – | – | – | – | – | MIC (Ps. aeruginosa IF03445; [1]): 25 µg/mL; MIC (Ps. aeruginosa AK 109; Ps. aeruginosa AK 109, 10^6 CFU/ml, read-out: Minimum Inhibitory Concentration (MIC)): > 100 µg/mL; MIC (S. marcescens No. 16-2; [3]): 3.12 µg/mL; MIC (P. vulgaris HX-19): 0.0125 µg/mL
CON=C(C(=O)NC1C(=O)N2C(C(=O)O)=C(CSc3nc(-c4ccc(OC(C)=O)c(OC(C)=O)c4)cs3)CSC12)c1csc(N)n1 (stereo not drawn) [compound 40, sodium 3-[4-(3,4-diacetoxyphenyl)-thiazol-2-yl]thiomethyl-7β-[2-(2-aminothiazol-4-yl)-2-methoxviminoacetamido]-3-cephem-4-carboxvlate] | – | < 100 | 0.39 | 0.1 | 0.1 | – | < 0.006 | – | – | – | 0.2 | 0.2 | 0.025 | 0.2 | 0.78 | 6.25 | 0.0125 | 0.78 | 1.56 | – | MIC (Ps. aeruginosa IF03445; [1]): 1.56 µg/mL; MIC (Ps. aeruginosa AK 109; [3]): 3.12 µg/mL; MIC (E. cloacae 963; [9]): 0.05 µg/mL; MIC (M. morganii GN5407): 0.1 µg/mL; MIC (S. aureus 209P NIHJ-JC1; [10]): 1.56 µg/mL
C=CCON=C(C(=O)NC1C(=O)N2C(C(=O)O)=C(CSc3nc(C(=O)O)c(-c4ccc(O)c(O)c4)s3)CSC12)c1csc(N)n1 (stereo not drawn) [Ex. 55, disodium 78-[2-allyloxyimino-2-(2-aminothiazol-4-yl)acetamido]-3-[4-carboxylate-5-(3,4-dihydroxyphenyl)thiazol-2-yl]thiomethyl-3-cephem-4-carboxylate] | 0.025 | > 100 | 0.39 | 0.025 | 0.1 | 0.1 | < 0.006 | – | 3.12 | – | 0.1 | 0.78 | 0.0125 | 0.1 | 0.1 | – | < 0.006 | – | 50 | 3.12 | MIC (Ps. aeruginosa AK 109; [14]): 6.25 µg/mL; MIC (S. marcescens No. 16-2; [3]): 3.12 µg/mL; MIC (S. aureus 209P NIHJ-JC1; read-out: Minimum Inhibitory Concentration (MIC), S. aureus 209P NIHJ-JC1, 10^6 CFU/ml, 37° C., 16 hours): 6.25 µg/mL
CC(=O)Oc1ccc(-c2nc(SCC3=C(C(=O)O)N4C(=O)C(NC(=O)C(=NOC(C)(C)C(=O)O)c5csc(N)n5)C4SC3)sc2CC(=O)O)cc1OC(C)=O (stereo not drawn) [Example 59 (II), trisodium 7β-[2-(2-aminothiazol-4-yl)-2-(1-carboxylate-1-methylethoxyimino)acetamido]-3-[4-(3,4-diacetoxyphenyl)-5-carboxylatemethylthiazol-2-yl]-thiomethyl-3-cephem-4-carboxylate] | < 0.006 | – | 0.2 | 0.05 | 0.2 | 0.2 | – | – | – | 0.2 | 0.2 | 3.12 | 0.025 | 0.05 | – | 0.78 | 0.025 | 1.56 | – | 1.56 | MIC (Ps. aeruginosa AKR17; AKR17, 16 h, read-out: Minimum Inhibitory Concentration (MIC), Ps. aeruginosa AKR17): 1.56 µg/mL; MIC (Ps. aeruginosa AK 109; [14]): 1.56 µg/mL; MIC (K. pneumoniae PCI-602; K. pneumoniae PCI-602, read-out: Minimum Inhibitory Concentration (MIC)): 0.025 µg/mL; MIC (S. aureus 209P NIHJ-JC1; [10]): 50 µg/mL; MIC (A. calcoaceticus No. 4; [15]): 0.2 µg/mL
Nc1nc(C(=NOCc2ccccc2)C(=O)NC2C(=O)N3C(C(=O)O)=C(CSc4nc(C(=O)O)c(-c5ccc(O)c(O)c5)s4)CSC23)cs1 (stereo not drawn) [Ex. 57] | < 0.006 | > 100 | 0.39 (≈ 0.526 µM) | 0.025 (≈ 0.0337 µM) | 0.1 (≈ 0.135 µM) | – | < 0.006 | 3.12 (≈ 4.21 µM) | 3.12 (≈ 4.21 µM) | – | 0.1 (≈ 0.135 µM) | 0.78 (≈ 1.05 µM) | 0.0125 (≈ 0.0169 µM) | 0.1 (≈ 0.135 µM) | 0.39 (≈ 0.526 µM) | 6.25 (≈ 8.44 µM) | < 0.006 | – | 25 (≈ 33.7 µM) | 3.12 (≈ 4.21 µM) | MIC (Ps. aeruginosa AK 109; [14]): 6.25 µg/mL (≈ 8.44 µM); MIC (E. cloacae 963; [9]): 0.05 µg/mL (≈ 0.0675 µM)
Nc1nc(C(=NOC2CCCC2)C(=O)NC2C(=O)N3C(C(=O)O)=C(CSc4nc(C(=O)O)c(-c5ccc(O)c(O)c5)s4)CSC23)cs1 (stereo not drawn) [Ex. 54, disodium 78-[2-(2-aminothiazol-4-yl)-2-cyclopentyloxyiminoacetamido]-3-[4-carboxylate-5-(3,4-dihydroxyphenyl)thiazol-2-yl]thiomethyl-3-cephem-4-carboxylate] | < 0.006 | > 100 | 0.2 | 0.025 | 0.05 | 0.1 | < 0.006 | 3.12 | – | 1.56 | 0.1 | 1.56 | 0.1 | 3.12 | – | 1.56 | < 0.006 | 1.56 | – | 1.56 | MIC (Ps. aeruginosa AK 109; [3]): 12.5 µg/mL; MIC (A. calcoaceticus No. 4; [15]): 0.2 µg/mL
